Data taken from ChEMBL document CHEMBL3430912, “GSK Tres Cantos Anti-Kinetoplastid Screening (TCAKS) Data”.

What was measured:
[1] = tested on: Trypanosoma cruzi; experiment: GSK_TCAKS: pIC50 Trypanosoma cruzi viability assay using beta-GAL activity. This assay was run at single shot at 5uM compound concentration per well. The biological reagents consisted of NIH-3T3 host cells and trypomastigotes parasitic cells; both cell types were set to a 3.3 * 10^5 cells/mL dilution in assay DMEM by means of a CASY cell counter device using a 60um capillary. 6 uL of the mixture were dispensed per well (about 1 * 10^3 host-cells and 1 * 10^3 parasites) with a Multidrop Combi dispenser. […] In all wells, the percentage of DMSO never exceeded 0.5%. Plates incubated for four days at 37C, 5% CO2. The substrate used for the assay fluorescence intensity (FLINT) readout was resorufin-beta-D-galactopiranoside (Sigma-Aldrich) at 5uM per well. It was diluted in PBS supplemented with the soft detergent Igepal (Fluka).; format: functional, organism-based, Mus musculus; details: Tulahuen, NIH3T3
[2] = tested on: Leishmania donovani; experiment: GSK_TCAKS: pIC50 Leishmania donovani viability assay using fluorescence intensity. Assay plates (1536-well) were prepared by adding 30nL per well of compound. For single shot assay, the final compound concentration was 5uM. […] Briefly, eGFP LdBOB axenic amastigotes were harvested, fixed and counted in a CASY cell counter (Roche-Applied Science). A final concentration of 1.5 * 10^5 cells per well were prepared in amastigote media containing 500 U/mL penicillin/streptomycin (Invitrogen) and 6uL was dispensed to each experimental well using a Multidrop Combi dispenser (Thermo Scientific). 6uL of assay media was dispensed to control columns used as reference for 100% compound response. Following incubation for 72 h at 37C, 5% CO2, 2 uL of resazurin was added to each well at a final concentration of 0.5 mM in phosphate buffered saline (PBS) with IGEPAL (Sigma-Aldrich), 0.05% (v/v).; format: functional, organism-based
[3] = tested on: NIH3T3; experiment: GSK_TCAKS: pIC50 NIH 3T3 cell line viability assay using luminiscence. Tissue culture surface treated assay plates (1536-well) were used. […] The 100% cells survival control was determined exposing the host-cells to a 0.5% DMSO concentration, whereas the 100% toxicity control was achieved by seeding the cells in presence of Amphotericin B at 50uM. Plates were incubated for four days at 37C, 5% CO2. The assay readout was developed by addition of 5uL of CellTiter-Glo Reagent following the manufacturer's instructions. Luminiscence was measured using a ViewLux.; format: functional, cell-based; details: Mus musculus, NIH3T3, 96 h
[4] = tested on: Leishmania donovani; experiment: GSK_TCAKS: pIC50 Leishmania donovani Imaging: Amastigotes/Macrophages. Assay plates (384-well) were prepared by adding 250nL of compound to each well. For single shot assay, the final compound concentration was 5 uM. […] Automated image analysis was performed with a script developed on Acapella High Content Imaging and Analysis Software (PerkinElmer). Output: Average number of amastigotes per macrophage cell were reported for each well.; format: functional, organism-based, Homo sapiens; details: THP-1
[5] = tested on: Trypanosoma brucei brucei; experiment: GSK_TCAKS: pIC50 Trypanosoma brucei viability assay using fluorescence intensity. Assay plates (1536-well) were prepared by dispensing 25nL of compound solution per well using an Echo acoustic dispenser (Labcyte).; format: functional, organism-based; details: Lister 427, 2 h
[6] = target: Sterol 14-alpha demethylase (Trypanosoma cruzi (strain CL Brener), UniProt Q7Z1V1); experiment: GSK_TCAKS: pIC50 CYP51 from Trypanosoma cruzi.; format: functional
[7] = tested on: Leishmania donovani; experiment: GSK_TCAKS: pIC50 Leishmania donovani Imaging: Infected Macrophages. Assay plates (384-well) were prepared by adding 250nL of compound to each well. For single shot assay, the final compound concentration was 5 uM. […] Automated image analysis was performed with a script developed on Acapella High Content Imaging and Analysis Software (PerkinElmer). Output: Percent of infected macrophage cells were reported for each well.; format: functional, organism-based, Homo sapiens; details: THP-1
[8] = tested on: Trypanosoma cruzi; experiment: (§1) GSK_TCAKS: pIC50 H2C9 Imaging: H9c2 Host Cardiomyocytes. […] Cells were then washed once with PBS before infection. T. cruzi trypomastigotes, collected at days 5 to 8 after infection from LLC-MK2 parasite infected cultures, were allowed to swim out for 4h at 37C from a centrifuged pellet (2,500 rpm/10 min/room temperature). Trypomastigotes were then collected and counted in a CASY Cell Counter. Trypomastigotes, in supplemented DMEM, were added to H9c2 cultures in a multiplicity of infection of 1 and incubated for 18 h. Cells were washed once with PBS before incubation of the infected H9c2 monolayer with trypsin (Life-Technologies) to detach cells from the flask. Cells were counted in a CASY Cell Counter using a 150 um capillary and their density set at 5 * 10^4 cells per mL in supplemented assay DMEM. Infected H9c2 were dispensed into 384-well poly-lysine coated assay plates at 50uL per well using a Multidrop Combi dispenser. After seeding them, the plates were incubated at 37C, 5% CO2 for 72h. Cultures were then fixed and stained by addition of 50 uL of a solution containing 8% formaldehyde and 4 uM DRAQ5 DNA dye (BioStatus, UK) per well. […] Five images were collected per well for reliable statistical analysis. Automated image analysis was performed with a script developed on Acapella High Content Imaging and Analysis Software (PerkinElmer). Output: Number of H9c2 Host Cardiomyocytes nuclei to determine drug-related cytotoxicity.; format: functional, organism-based, Rattus norvegicus; details: H9c2, 4 h
[9] = tested on: Leishmania donovani; experiment: GSK_TCAKS: pIC50 Leishmania donovani Imaging: THP-1 Host Macrophages. Assay plates (384-well) were prepared by adding 250nL of compound to each well. For single shot assay, the final compound concentration was 5 uM. […] Automated image analysis was performed with a script developed on Acapella High Content Imaging and Analysis Software (PerkinElmer). Output: THP-1 cell count were reported for each well.; format: functional, organism-based, Homo sapiens
[10] = tested on: Trypanosoma cruzi; experiment: as §1, with “Trypanosoma cruzi” for “H2C9”, “Amastigotes/Cell.” for “H9c2 Host Cardiomyocytes.”, “number” for “Number”, “amastigotes per cell as infection level measurement.” for “H9c2 Host Cardiomyocytes nuclei to determine drug-related cytotoxicity.”; format: functional, organism-based, Rattus norvegicus; details: H9c2, 4 h
[11] = tested on: Trypanosoma cruzi; experiment: as §1, with “Trypanosoma cruzi” for “H2C9”, “Infected Cells.” for “H9c2 Host Cardiomyocytes.”, “percentage” for “Number”, “infected cells per well as a second infection marker.” for “H9c2 Host Cardiomyocytes nuclei to determine drug-related cytotoxicity.”; format: functional, organism-based, Rattus norvegicus; details: H9c2, 4 h
[12] = GSK_TCAKS: pIC50 HepG2 human cell line viability assay using luminiscence. […] Seeding density was checked to ensure that new mono-layers were not more than 50% confluent at the time of harvesting. Cell suspension was added to 500 mL of the same medium at a final density of 1.2 * 10^5 cells/mL. This cell suspension was dispensed (25 uL, 3000 cells per well) into 384-well clear-bottom plates using a Multidrop Combi dispenser. Prior to addition of the cell suspension, the screening compounds (250 nL) were pre-dispensed into the plates with an Echo liquid handler. Plates were incubated for 48 h at 37C, 5% CO2. After incubation, plates equilibrated at room temperature for 30 min before proceeding to develop the luminescent signal. The signal developer, CellTiter-Glo Reagent, was allowed to equilibrate at room temperature for 30 min and added to the plates (25uL per well) using a Multidrop Combi dispenser. Plates were left for 10 min at room temperature for stabilization and then read using a ViewLux.; format: toxicity, cell-based
[13] = tested on: Trypanosoma brucei brucei; experiment: GSK_TCAKS: pIC50 Trypanosoma brucei viability assay using luminiscence. Assay plates (1536-well) were prepared. T. brucei cultures were harvested and counted in a CASY cell counter. A parasite suspension was prepared at a final concentration of 5 * 10^4 cells/mL in complete HMI9 medium and 6uL was dispensed to all wells containing compounds using a Multidrop Combi dispenser. 6uL of HMI9 media with 0.4% DMSO were dispensed to control columns. Plates were incubated for 24 h at 37C, 5% CO2 then tempered for 10 min at room temperature. ATP content was quantified by adding 4 uL of CellTiter-Glo Reagent (Promega) according to the manufacturer's instructions. Luminescence was measured using a ViewLux.; format: functional, organism-based; details: Lister 427, CASY

Sterol 14-alpha demethylase, sequence (Q7Z1V1 whole entry): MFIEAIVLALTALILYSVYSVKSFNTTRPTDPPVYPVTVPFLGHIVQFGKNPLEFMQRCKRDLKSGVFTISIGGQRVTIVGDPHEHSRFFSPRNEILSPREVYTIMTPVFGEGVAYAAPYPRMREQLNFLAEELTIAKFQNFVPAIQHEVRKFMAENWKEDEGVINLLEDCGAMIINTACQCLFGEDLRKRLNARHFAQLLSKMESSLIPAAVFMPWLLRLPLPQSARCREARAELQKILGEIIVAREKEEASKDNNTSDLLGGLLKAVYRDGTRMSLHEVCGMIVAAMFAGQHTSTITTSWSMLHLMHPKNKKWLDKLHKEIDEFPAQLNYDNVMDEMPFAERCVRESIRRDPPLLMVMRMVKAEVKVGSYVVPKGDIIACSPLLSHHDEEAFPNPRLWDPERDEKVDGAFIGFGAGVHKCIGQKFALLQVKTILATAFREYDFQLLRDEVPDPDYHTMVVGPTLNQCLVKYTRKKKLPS

SMILES	IC50 [1]	IC50 [2]	IC50 [3]	IC50 [4]	IC50 [5]	IC50 [6]	IC50 [7]	IC50 [8]	IC50 [9]	IC50 [10]	IC50 [11]	IC50 at 48 h [12]	IC50 [13]
O=C(c1cccc(Cl)c1Cl)N1CCn2c1nc(-c1ccncc1)cc2=O	0.178 µM	50.1 µM	20 µM	31.6 µM	15.8 µM	0.0631 µM	> 50.1 µM	> 50.1 µM	> 50.1 µM	0.316 µM	0.316 µM	> 100 µM	31.6 µM
CS(=O)(=O)c1cccc(-c2cnc(N)c3c(-c4ccc(CO)cc4)csc23)c1	0.794 µM	39.8 µM	25.1 µM	7.94 µM	2 µM	3.16 µM	10 µM	> 50.1 µM	> 50.1 µM	0.316 µM	0.631 µM	> 100 µM	5.01 µM
O=C(NCCc1ccccn1)C(c1cn[nH]c1)N1CCN(c2ccc(Cl)c(Cl)c2)CC1 (stereo not given)	0.1 µM	2.51 µM	31.6 µM	20 µM	12.6 µM	0.126 µM	> 50.1 µM	> 50.1 µM	> 50.1 µM	0.126 µM	0.158 µM	> 100 µM	> 39.8 µM
COc1ccc(-c2ccc3nnc(-c4ccc(O)c(OC)c4)n3c2)cn1	1.26 µM	3.98 µM	50.1 µM	> 50.1 µM	2 µM	> 100 µM	> 50.1 µM	> 50.1 µM	> 50.1 µM	2 µM	3.16 µM	> 100 µM	2.51 µM
COc1cc(-c2nc(N3CCOCC3)sc2-c2ccnc(NC3CCOCC3)n2)ccc1Cl	0.251 µM	> 50.1 µM	> 50.1 µM	0.02 µM	15.8 µM	> 100 µM	> 50.1 µM	> 50.1 µM	> 50.1 µM	0.1 µM	0.158 µM	> 100 µM	> 39.8 µM
CN(C)c1ncc(-c2cncn2CCOc2ccc(Cl)cc2)cn1	0.224 µM	> 50.1 µM	39.8 µM	> 50.1 µM	> 39.8 µM	0.0501 µM	> 50.1 µM	> 50.1 µM	> 50.1 µM	0.2 µM	0.251 µM	> 100 µM	> 39.8 µM
CCC(c1ccc(F)cc1)n1cncc1-c1cnn(C)c1 (stereo not given)	0.2 µM	> 50.1 µM	25.1 µM	> 50.1 µM	> 39.8 µM	0.0794 µM	> 50.1 µM	> 50.1 µM	> 50.1 µM	0.316 µM	0.316 µM	> 100 µM	> 39.8 µM
O=C(Nc1ncc([N+](=O)[O-])s1)C1CC1	0.398 µM	39.8 µM	31.6 µM	> 50.1 µM	7.94 µM	> 100 µM	> 50.1 µM	> 50.1 µM	> 50.1 µM	0.398 µM	1 µM	> 100 µM	39.8 µM
CC(=Cc1ccccc1)CN1CCC(=O)N(Cc2cccnc2)CC1	0.251 µM	> 50.1 µM	> 50.1 µM	31.6 µM	> 39.8 µM	0.1 µM	> 50.1 µM	> 50.1 µM	39.8 µM	0.501 µM	0.501 µM	> 100 µM	> 39.8 µM
CN1CCN(c2nc(-c3ccc(Cl)cc3)c3c(N)n(C)nc3n2)CC1	2 µM	> 50.1 µM	25.1 µM	31.6 µM	12.6 µM	> 100 µM	39.8 µM	25.1 µM	39.8 µM	0.794 µM	1 µM	79.4 µM	31.6 µM
